Assay results from article PMC7897990, “TriTOX: A novel Trichomonas vaginalis assay platform for high-throughput screening of compound libraries” (International Journal for Parasitology: Drugs and Drug …, 2021).
Starred links: 1 amine or outer side, 2 acyl side, 3 side chain; linkers in the order of their positions; H or OH if unused. Positions of bridges follow the written chain, without caps; N, C: chain ends. Non-standard residues stand in square brackets, D forms with d. Residues, ends and D or L forms follow the SMILES beside them. ξ: configuration not given here. *: point of attachment. pTerphenylCO(4''-OnC5H11) = CCCCCOc1ccc(-c2ccc(-c3ccc(C(=O)*)cc3)cc2)cc1; ξOrn(4,5-diOH) = O=C(C(CC(O)C(O)N[*:3])N[*:1])[*:2]; ξhTyr(βξ-OH,γξ-OH) = NC(C(=O)O)C(O)C(O)c1ccc(O)cc1; Aoe = N[C@@H](CCCCCC(=O)[C@@H]1CO1)C(=O)O; ξPro(3ξ-OH,4ξ-Me) = CC1CNC(C(=O)O)C1O; Phe(ol) = N[C@H](CO)Cc1ccccc1; Hyp = O=C(O)[CH]1C[CH](O)CN1; Aib = CC(C)(N)C(=O)O

Experiments:
[1] = tested on: Trichomonas vaginalis G3 trophozoites; conditions: HTS single concentration, parasite screen 1 µg/mL; for T.vaginalis_%inb_Rep1: replicate 1; for T.vaginalis_%inb_Rep2: replicate 2
[2] = tested on: nontumorigenic neonatal foreskin fibroblast (NFF) cell line; conditions: NFF_NS1 screen 5 µg/mL, single concentration

**Q.** For `COc1cc2c(c3oc(=O)c4c(c13)CCC4=O)[C@@H]1C=CO[C@@H]1O2` [BIA-A1232], which T.vaginalis_%inb_Rep1 [1] is on record?
**A.** The T.vaginalis_%inb_Rep1 was 12.06%.

**Q.** And the T.vaginalis_%inb_Rep2 [1]?
**A.** The T.vaginalis_%inb_Rep2 was 5.64%.

**Q.** And the NFF_Activity [2]?
**A.** Its NFF_Activity is “I (otherwise these were reported as inactive (I))”.

**Q.** Which T.vaginalis_%inb_Rep1 [1] does the source give for `COc1cc2c(c3oc(=O)c4c(c13)CCC4=O)[C@@H]1CCO[C@@H]1O2` [BIA-A1233] here?
**A.** The T.vaginalis_%inb_Rep1 was 13.46%.

**Q.** And the T.vaginalis_%inb_Rep2 [1]?
**A.** Its T.vaginalis_%inb_Rep2 is 11.14%.

**Q.** What about the NFF_Activity [2] of the same molecule?
**A.** Its NFF_Activity is “I (otherwise these were reported as inactive (I))”.

**Q.** Which results are given for `COc1cc2c(c3oc(=O)c4c(c13)CCOC4=O)[C@@H]1C=CO[C@@H]1O2` [BIA-A1234]?
**A.** T.vaginalis_%inb_Rep1 [1]: 14.70%; T.vaginalis_%inb_Rep2 [1]: 13.02%; NFF_Activity [2]: I (otherwise these were reported as inactive (I))

**Q.** `COc1cc2c(c3oc(=O)c4c(c13)CCOC4=O)[C@@H]1CCO[C@@H]1O2` [BIA-A1235] was tested. Which T.vaginalis_%inb_Rep1 [1] did it give?
**A.** The T.vaginalis_%inb_Rep1 was 12.33%.

**Q.** What about the T.vaginalis_%inb_Rep2 [1] of the same molecule?
**A.** The T.vaginalis_%inb_Rep2 was 13.81%.

**Q.** And the NFF_Activity [2]?
**A.** Its NFF_Activity is “I (otherwise these were reported as inactive (I))”.

**Q.** What does the source list for `CC[C@H]1OC(=O)[C@H](C)[C@@H](O[C@H]2C[C@@](C)(OC)[C@@H](O)[C@H](C)O2)[C@H](C)[C@@H](O[C@@H]2O[C@H](C)C[C@H](N(C)C)[C@H]2O)[C@](C)(O)C[C@@H](C)CN(C)[C@H](C)[C@@H](O)[C@]1(C)O` [BIA-A1312]?
**A.** T.vaginalis_%inb_Rep1 [1]: 6.35%; T.vaginalis_%inb_Rep2 [1]: 11.21%; NFF_Activity [2]: I (otherwise these were reported as inactive (I))

**Q.** `Cc1c2c(c(O)c3c(O)cccc13)C(=O)[C@]1(O)C(=O)C(C(N)=O)=C(O)[C@@H](N(C)C)[C@@H]1C2.Cl` [BIA-A1340] was tested. Which T.vaginalis_%inb_Rep1 [1] did it give?
**A.** Its T.vaginalis_%inb_Rep1 is 6.73%.

**Q.** And the T.vaginalis_%inb_Rep2 [1]?
**A.** The T.vaginalis_%inb_Rep2 was 9.54%.

**Q.** What about the NFF_Activity [2] of the same molecule?
**A.** The NFF_Activity was “I (otherwise these were reported as inactive (I))”.

**Q.** How did the T.vaginalis_%inb_Rep1 [1] turn out when `CCC1OC(=O)C(C)C(OC2CC(C)(OC)C(O)C(C)O2)C(C)C(OC2OC(C)CC(N(C)C)C2O)C2(C)CC(C)C3(O2)OC1(C)C(O)C3C` (stereo not drawn) [BIA-A1348] was run?
**A.** The T.vaginalis_%inb_Rep1 was 15.19%.

**Q.** What about the T.vaginalis_%inb_Rep2 [1] of the same molecule?
**A.** Its T.vaginalis_%inb_Rep2 is 13.67%.

**Q.** What about the NFF_Activity [2] of the same molecule?
**A.** The NFF_Activity was “I (otherwise these were reported as inactive (I))”.

**Q.** What does the source list for `C[C@@H]1NC(=O)[C@H](CCCCCC(=O)[C@@H]2CO2)NC(=O)[C@H]2CCCN2C(=O)[C@H](Cc2ccccc2)NC1=O` [BIA-A1402] (cyclo(AF[dP][Aoe]))?
**A.** T.vaginalis_%inb_Rep1 [1]: 64.03%; T.vaginalis_%inb_Rep2 [1]: 94.29%; NFF_Activity [2]: I (otherwise these were reported as inactive (I))

**Q.** What does the source list for `C=C1C(=O)OC2C(=O)OC(CCCCCCCC)C12` (stereo not drawn) [BIA-A1409]?
**A.** T.vaginalis_%inb_Rep1 [1]: 15.19%; T.vaginalis_%inb_Rep2 [1]: 12.94%; NFF_Activity [2]: A (active (A) compounds having >25% inhibitory activity)

**Q.** How did the T.vaginalis_%inb_Rep1 [1] turn out when `CCCCCOc1ccc(-c2ccc(-c3ccc(C(=O)NC4CC(O)C(O)NC(=O)C5C(O)C(C)CN5C(=O)C(C(C)O)NC(=O)C(C(O)C(O)c5ccc(O)cc5)NC(=O)C5CC(O)CN5C(=O)C(C(C)O)NC4=O)cc3)cc2)cc1` (stereo not drawn) [BIA-A1423] ({pTerphenylCO(4''-OnC5H11)}-[ξOrn(4,5-diOH)]T[Hyp][ξhTyr(βξ-OH,γξ-OH)]T[ξPro(3ξ-OH,4ξ-Me)]; lactam 1-C; configuration not given here) was run?
**A.** Its T.vaginalis_%inb_Rep1 is 14.75%.

**Q.** And the T.vaginalis_%inb_Rep2 [1]?
**A.** Its T.vaginalis_%inb_Rep2 is 12.08%.

**Q.** And the NFF_Activity [2]?
**A.** The NFF_Activity was “I (otherwise these were reported as inactive (I))”.

**Q.** With `CC1C=CC=CC=CC=CC=CC=CC=CC(OC2OC(C)C(O)C(N)C2O)CC2OC(O)(CC(O)CC(O)C(O)CCC(O)CC(O)CC(=O)OC(C)C(C)C1O)CC(O)C2C(=O)O` (stereo not drawn) [BIA-A1441] as the molecule, how does the T.vaginalis_%inb_Rep1 [1] read?
**A.** Its T.vaginalis_%inb_Rep1 is 13.68%.

**Q.** And the T.vaginalis_%inb_Rep2 [1]?
**A.** Its T.vaginalis_%inb_Rep2 is 14.03%.

**Q.** And the NFF_Activity [2]?
**A.** The NFF_Activity was “I (otherwise these were reported as inactive (I))”.

**Q.** What does the source list for `CCCCCC[C@H]1C(=O)O[C@H](C)[C@H](NC(=O)c2cccc(NC=O)c2O)C(=O)O[C@@H](C)[C@@H]1OC(=O)CC(C)C` [BIA-A1442]?
**A.** T.vaginalis_%inb_Rep1 [1]: 17.88%; T.vaginalis_%inb_Rep2 [1]: 12.87%; NFF_Activity [2]: I (otherwise these were reported as inactive (I))

**Q.** With `CCCC[C@H]1C(=O)O[C@H](C)[C@H](NC(=O)c2cccc(NC=O)c2O)C(=O)O[C@@H](C)[C@@H]1OC(=O)CC(C)C` [BIA-A1444] as the molecule, how does the T.vaginalis_%inb_Rep1 [1] read?
**A.** Its T.vaginalis_%inb_Rep1 is 12.87%.

**Q.** And the T.vaginalis_%inb_Rep2 [1]?
**A.** Its T.vaginalis_%inb_Rep2 is 14.61%.

**Q.** What about the NFF_Activity [2] of the same molecule?
**A.** Its NFF_Activity is “I (otherwise these were reported as inactive (I))”.

**Q.** `[N-]=[N+]=NCC(=O)N[C@H](CO)[C@H](O)c1ccc([N+](=O)[O-])cc1` [BIA-A1485] was tested. Which T.vaginalis_%inb_Rep1 [1] did it give?
**A.** Its T.vaginalis_%inb_Rep1 is 12.55%.

**Q.** What about the T.vaginalis_%inb_Rep2 [1] of the same molecule?
**A.** Its T.vaginalis_%inb_Rep2 is 16.12%.

**Q.** And the NFF_Activity [2]?
**A.** Its NFF_Activity is “I (otherwise these were reported as inactive (I))”.

**Q.** With `CC[C@]1(C)C[C@@H](OC(=O)CSc2n[nH]c(N)n2)[C@]2(C)[C@H](C)CC[C@]3(CCC(=O)[C@H]32)[C@@H](C)[C@@H]1O` [BIA-A1489] as the molecule, how does the T.vaginalis_%inb_Rep1 [1] read?
**A.** Its T.vaginalis_%inb_Rep1 is 14.65%.

**Q.** And the T.vaginalis_%inb_Rep2 [1]?
**A.** The T.vaginalis_%inb_Rep2 was 19.67%.

**Q.** What about the NFF_Activity [2] of the same molecule?
**A.** Its NFF_Activity is “I (otherwise these were reported as inactive (I))”.

**Q.** What does the source list for `CC(=O)N[C@H]1CCOC1=O` [BIA-A1493]?
**A.** T.vaginalis_%inb_Rep1 [1]: 15.89%; T.vaginalis_%inb_Rep2 [1]: 26.61%; NFF_Activity [2]: I (otherwise these were reported as inactive (I))

**Q.** `CC(=O)NC(C)(C)C(=O)N1CCC[C@H]1C(=O)NC(C)(C)C(=O)N[C@@H](C)C(=O)NC(C)(C)C(=O)N[C@@H](C)C(=O)N[C@@H](CCC(N)=O)C(=O)NC(C)(C)C(=O)N[C@H](C(=O)NC(C)(C)C(=O)NCC(=O)N[C@@H](CC(C)C)C(=O)NC(C)(C)C(=O)N1CCC[C@H]1C(=O)N[C@H](C(=O)NC(C)(C)C(=O)NC(C)(C)C(=O)N[C@@H](CCC(N)=O)C(=O)N[C@@H](CCC(N)=O)C(=O)N[C@H](CO)Cc1ccccc1)C(C)C)C(C)C` [BIA-A1543] (Ac-[Aib]P[Aib]A[Aib]AQ[Aib]V[Aib]GL[Aib]PV[Aib][Aib]QQ[Phe(ol)]) was tested. Which T.vaginalis_%inb_Rep1 [1] did it give?
**A.** The T.vaginalis_%inb_Rep1 was 13.73%.

**Q.** And the T.vaginalis_%inb_Rep2 [1]?
**A.** The T.vaginalis_%inb_Rep2 was 13.74%.

**Q.** What about the NFF_Activity [2] of the same molecule?
**A.** The NFF_Activity was “I (otherwise these were reported as inactive (I))”.

**Q.** Which T.vaginalis_%inb_Rep1 [1] does the source give for `Cc1c2c(c(O)c3c(O)ccc(Cl)c13)C(=O)[C@]1(O)C(O)=C(C(N)=O)C(=O)[C@@H](N(C)C)[C@@H]1C2.Cl` [BIA-A1552] here?
**A.** Its T.vaginalis_%inb_Rep1 is 13.30%.

**Q.** What about the T.vaginalis_%inb_Rep2 [1] of the same molecule?
**A.** Its T.vaginalis_%inb_Rep2 is 11.71%.

**Q.** What about the NFF_Activity [2] of the same molecule?
**A.** The NFF_Activity was “I (otherwise these were reported as inactive (I))”.

**Q.** What does the source list for `CC[C@H](C)[C@H]1O[C@]2(C=C[C@@H]1C)C[C@@H]1C[C@@H](C/C=C(\C)[C@@H](O[C@H]3C[C@H](OC)[C@@H](O[C@H]4C[C@H](OC)[C@@H](O)[C@H](C)O4)[C@H](C)O3)[C@@H](C)/C=C/C=C3\CO[C@@H]4[C@H](O)C(C)C=C(C(=O)O1)[C@]34O)O2` (stereo partly drawn) [BIA-A1579]?
**A.** T.vaginalis_%inb_Rep1 [1]: 15.89%; T.vaginalis_%inb_Rep2 [1]: 15.40%; NFF_Activity [2]: I (otherwise these were reported as inactive (I))

**Q.** With `CC[C@H](C)[C@H]1O[C@]2(C=C[C@@H]1C)C[C@@H]1C[C@@H](C/C=C(\C)[C@@H](O[C@H]3C[C@H](OC)[C@@H](O)[C@H](C)O3)[C@@H](C)/C=C/C=C3\CO[C@@H]4[C@H](O)C(C)=C[C@@H](C(=O)O1)[C@]34O)O2` [BIA-A1585] as the molecule, how does the T.vaginalis_%inb_Rep1 [1] read?
**A.** The T.vaginalis_%inb_Rep1 was 14.27%.

**Q.** What about the T.vaginalis_%inb_Rep2 [1] of the same molecule?
**A.** The T.vaginalis_%inb_Rep2 was 12.58%.

**Q.** And the NFF_Activity [2]?
**A.** The NFF_Activity was “I (otherwise these were reported as inactive (I))”.

**Q.** `CC[C@H](C)[C@H]1O[C@]2(C=C[C@@H]1C)C[C@@H]1C[C@@H](C/C=C(\C)[C@@H](O)[C@@H](C)/C=C/C=C3\CO[C@@H]4[C@H](O)C(C)=C[C@@H](C(=O)O1)[C@]34O)O2` [BIA-A1587] was tested. Which T.vaginalis_%inb_Rep1 [1] did it give?
**A.** Its T.vaginalis_%inb_Rep1 is 13.62%.

**Q.** And the T.vaginalis_%inb_Rep2 [1]?
**A.** Its T.vaginalis_%inb_Rep2 is 16.27%.

**Q.** What about the NFF_Activity [2] of the same molecule?
**A.** The NFF_Activity was “I (otherwise these were reported as inactive (I))”.

**Q.** What does the source list for `COc1c(OC)c(-c2c[nH]c3ccccc23)c(OC)c(OC)c1-c1c[nH]c2ccccc12` [BIA-A1630]?
**A.** T.vaginalis_%inb_Rep1 [1]: 13.41%; T.vaginalis_%inb_Rep2 [1]: 14.03%; NFF_Activity [2]: I (otherwise these were reported as inactive (I))
